Structures can show the parent of a compound that is named as a salt. Where two headings read alike, the source gives them in different places.
Key:
[1] = test system: U251 cells; experiment: In-vitro cell proliferation assay (SRB), U251 cells; assay type: cell-based; conditions: Homo sapiens, U-251, 72 hours
Description: After overnight incubation at 37° C. and 5% CO2, the compound titrations were performed in a separate dilution plate by serially diluting the compounds in DMSO to make a 1000× stock. The compounds were then further diluted to 10× final concentration in culture media, whereupon 20 μL of each dilution was added to the plated cells with controls (e.g. DMSO and blank) to make a final volume of 5 200 μL. The final DMSO concentration in each well was 0.1%. The plates were then incubated for 72 hours at 37° C. in a 5% CO2 incubator. The number of viable cells was then assessed using sulforhodamine B (SRB) assay. Cells were fixed at 4° C. for 1 hour with the addition of 50 μL 30% trichloroacetic acid (TCA) to make a final concentration of 6% 10 TCA. The plates were washed four times with H2O and allowed to dry for at least 1 hour, whereupon 100 μL of a 4% SRB in 1% acetic acid solution was added to each well and incubated at room temperature for at least 30 minutes. The plates were then washed three times with 1% acetic acid, dried, and treated with 100 μL of 10 mM Tris-Base solution. The plates were then read in a microplate reader at an absorbance of 570 nm. 15 Background was generated on a separate plate with media only. Method for Determining % Inhibition First, the signals from the background plate are averaged, then the background was subtracted from the test plates.

[2] = biological target: T1, NAMPT (Homo sapiens, UniProt P43490); experiment: Biochemical inhibition assay: NAMPT enzymatic reaction, NMN quantified by mass spectrometry; conditions: read-out: Biochem IC50
T1 construct: His tag; host or cells: E. coli
How it was run: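 Inhibition of E. coli-expressed His-tagged human NAMPT, measured as NMN formation by mass spectrometry after a 30 min room-temperature reaction containing 1 μM NAM, 100 μM PRPP and 2.5 mM ATP.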

[3] = test system: A2780 cells; experiment: In-vitro cell proliferation assay (SRB), A2780 cells; assay type: cell-based; conditions: Homo sapiens, A2780, 72 h, A2780 cells, 72 hours, read-out: A2780 IC50
How it was run: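 Growth inhibition was derived from background-corrected SRB absorbance (570 nm), measured on cells fixed in 6% TCA after three days of compound treatment under 5% CO2 at 37° C.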

[4] = test system: A2780 cells; experiment: Xenograft studies: A2780 tumors s.c. in C.B-17-Igh-1b-Prkdc scid mice; assay type: in vivo; conditions: female scid mice, p.o. BID for 5 or 10 days, dose selected from MTD study
Description: C.B-17-Igh-1b-Prkdc^scid mice (female) were injected s.c. with 5×10^6 A2780 cells (NCI) in the left flank. 10-12 days later when tumors reached 100-200 mm3 in size, mice were randomized into treatment groups of 8 mice per group including vehicle control and reference standard groups. The compounds were formulated in 60:30:10 PEG-400: D5W: Ethanol and administered p.o., at the dose volume of 10 ml/kg BID for a duration of 5 or 10 days. The dose used for efficacy was selected from the MTD (Maximum Tolerated Dose) study. Mice were weighed and tumors measured using vernier calipers every alternate day. Tumor volume was calculated according to the formula (length×width^2)/2. All animal work was approved by the Institutional Animal Care and Use Committee of Biological Resource Centre, Singapore.

[5] = test system: tumor cell lines; conditions: broad range of tumor cell lines; Ravaud et al. 2005; cited from earlier work
[6] = test system: HepG2 cells; conditions: Hasmann et al. 2003; cited from earlier work
[7] = test system: mouse mammary carcinoma; conditions: in vivo; cited from earlier work
[8] = test system: murine renal cell carcinoma; conditions: Drevs et al. 2003; cited from earlier work

T1 sequence (P43490 whole entry): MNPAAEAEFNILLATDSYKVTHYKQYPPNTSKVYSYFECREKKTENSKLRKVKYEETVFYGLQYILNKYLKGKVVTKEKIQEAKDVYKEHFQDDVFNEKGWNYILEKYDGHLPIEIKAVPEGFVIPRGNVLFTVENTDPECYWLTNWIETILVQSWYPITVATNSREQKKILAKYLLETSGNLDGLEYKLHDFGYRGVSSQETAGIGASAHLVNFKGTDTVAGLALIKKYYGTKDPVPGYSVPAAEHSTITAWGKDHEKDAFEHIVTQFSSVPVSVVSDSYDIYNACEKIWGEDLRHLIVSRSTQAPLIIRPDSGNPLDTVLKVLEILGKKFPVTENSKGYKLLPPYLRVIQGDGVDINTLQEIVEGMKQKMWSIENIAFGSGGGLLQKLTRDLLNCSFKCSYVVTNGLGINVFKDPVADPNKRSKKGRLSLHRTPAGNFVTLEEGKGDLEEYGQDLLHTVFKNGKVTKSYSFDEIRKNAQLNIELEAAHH

SMILES	IC50 [1] [µM]	IC50 ([2]; NAMPT enzymatic reaction) [µM]	IC50 ([3]; SRB assay) [µM]	Effect on tumor in A2780 xenograft [4]	other results
O=C(NCc1ccc(S(=O)(=O)c2ccccc2)cc1)c1ccc2cncn2c1 [N-{[4-(benzenesulfonyl)phenyl]methyl}imidazo[1,5-alpyridine-6-carboxamide]	> 2				
O=C(NCc1ccc(S(=O)(=O)c2ccccc2)cn1)c1cc2cnccc2[nH]1 [N-{[5-(benzenesulfonyl)pyridin-2-yl]methyl}-1H-pyrrolo[3,2-c]pyridine-2-carboxamide]	0.035				
O=C(NCc1ccc(S(=O)(=O)N2CCNCC2)cc1)c1cc2ccncc2s1 [N-{[4-(pipcrazine-1-sulfonyl)phenyl]methyl}thieno[2,3-c]pyridine-2-carboxamide]	0.405				
O=C(NCc1ccc(S(=O)(=O)c2ccccc2)cc1)c1cn2ccnc2cn1 [N-{[4-(benzenesulfonyl)phenyl]methyl}imidazo[1,2-alpyrazinc-6-carboxamide]	> 2				
O=C(NCc1ccc(S(=O)(=O)Nc2ccccc2OC(F)(F)F)cc1)c1cc2cnccc2[nH]1 [N-[(4-{[2-(trifluoromethoxy)phenyl]sulfamoyl}phenyl)methyl]-1H-pyrrolo[3,2-c]pyridine-2-carboxamide]		0.006	0.001	tumor stasis	
O=C(NCc1ccc(S(=O)(=O)c2ccccc2)nc1)c1cc2cnccc2[nH]1 [N-{[6-(benzenesulfonyl)pyridin-3-yl]methyl}-1H-pyrrolo[3,2-c]pyridine-2-carboxamide]	> 2				
O=C(NCc1ccc(S(=O)(=O)c2ccccc2)cc1)c1cc2ncccc2s1 [N-{[4-(benzenesulfonyl)phenyl]methyl}thieno[3,2-b]pyridine-2-carboxamide]	> 2				
O=C(NCc1ccc(S(=O)(=O)c2cccnc2)cc1)c1cc2cnccc2[nH]1 [N-{[4-(pyridine-3-sulfonyl)phenyl]methyl}-1H-pyrrolo[3,2-c]pyridine-2-carboxamide]		0.021	0.048	delayed tumor growth	
N#C/N=C(\NCCCCCCOc1ccc(Cl)cc1)Nc1ccncc1 [CHS-828]					Cell growth inhibition in tumor cell lines [5]: potently inhibit cell growth
O=C(NCc1ccc(S(=O)(=O)c2ccccc2)cc1)c1cc2ccncc2s1 [N-{[4-(benzenesulfonyl)phenyl]methyl}thieno[2,3-c]pyridine-2-carboxamide]		0.011	0.012	tumor regression	
O=C(NCc1ccc(S(=O)(=O)c2ccccc2OC(F)(F)F)cc1)c1cc2cnccc2[nH]1 [N-[(4-{[2-(trifluoromethoxy)benzene]sulfonyl}phenyl)methyl]-1H-pyrrolo[3,2-c]pyridine-2-carboxamide]		0.016	0.003	tumor regression	
O=C(NCc1ccc([S+]([O-])c2cc(F)cc(F)c2)cc1)c1ccc2nccn2c1 (stereo not drawn) [N-({4-[(3,5-difluorobenzene)sulfinyl]phenyl}methyl)imidazo[1,2-a]pyridine-6-carboxamide]	0.0066				
NC1CCN(S(=O)(=O)c2ccc(CNC(=O)c3cc4ccncc4o3)cc2)C1 (stereo not drawn) [N-{[4-(3-aminopyrrolidine-1-sulfonyl)phenyl]methyl}furo[2,3-c]pyridine-2-carboxamide hydrochloride]	1.85				
O=C(/C=C/c1cccnc1)NCCCCC1CCN(C(=O)c2ccccc2)CC1 [FK866, (E)-N-[4-(1-benzoylpiperidin-4-yl)butyl]-3-(pyridine-3-yl)-acrylamide]					Apoptosis in HepG2 cells [6]: induces apoptosis; Tumor growth in mouse mammary carcinoma model [7]: delay in tumor growth; Activity in murine renal cell carcinoma model [8]: anti-tumor, antimetastatic, and anti-angiogenic activities
NC1CCN(S(=O)(=O)c2ccc(CNC(=O)c3cc4ccncc4s3)cc2)C1 (stereo not drawn) [N-{[4-(3-aminopyrrolidine-1-sulfonyl)phenyl]methyl}thieno[2,3-c]pyridine-2-carboxamide hydrochloride]	0.31				
O=C(NCc1ccc(S(=O)(=O)c2ccc(F)cc2)cc1)c1ccc2nccn2c1 [N-({4-[(4-fluorobenzene)sulfonyl]phenyl}methyl)imidazo[1,2-a]pyridine-6-carboxamide]		0.023	0.011	tumor regression	

SMILES	IC50 [1] [µM]	IC50 ([2]; NAMPT enzymatic reaction) [µM]	IC50 ([3]; SRB assay) [µM]	Effect on tumor in A2780 xenograft [4]	other results
CC(=O)c1ccc(S(=O)(=O)c2ccc(CNC(=O)c3cc4cnccc4[nH]3)cc2)cc1 [N-({4-[(4-acetylbenzene)sulfonyl]phenyl}methyl)-1H-pyrrolo[3,2-c]pyridine-2-carboxamide]		0.007	0.003	tumor regression	
COc1cc(-n2cccn2)ccc1S(=O)(=O)c1ccc(CNC(=O)c2cc3cnccc3[nH]2)cc1 [N-[(4-{[2-methoxy-4-(1H-pyrazol-1-yl)benzene]sulfonyl}phenyl)methyl]-1H-pyrrolo[3,2-c]pyridine-2-carboxamide]		0.016	0.002	delayed tumor growth	
O=C(NCc1ccc(S(=O)(=O)c2cccc(Cl)c2)cc1)c1cc2cnccc2[nH]1 [N-({4-[(3-chlorobenzene)sulfonyl]phenyl}methyl)-1H-pyrrolo[3,2-c]pyridine-2-carboxamide]		0.005	0.003	tumor regression	
O=C(NCc1ccc(S(=O)(=O)c2ccccc2)cc1)c1cc2cnccc2[nH]1 [N-{[4-(benzenesulfonyl)phenyl]methyl}-1H-pyrrolo[3,2-c]pyridine-2-carboxamide]	0.04			tumor regression	
O=C(NCc1ccc(S(=O)(=O)N2CCNCC2)cc1)c1ccc2nccn2c1 [N-{[4-(piperazine-1-sulfonyl)phenyl]methyl}imidazo[1,2-a]pyridine-6-carboxamide]	0.556				
O=C(NCc1ccc(S(=O)(=O)c2ccc(F)cc2)cc1)c1cc2cnccc2[nH]1 [N-({4-[(4-fluorobenzene)sulfonyl]phenyl}methyl)-1H-pyrrolo[3,2-c]pyridine-2-carboxamide]		0.038	0.008	tumor regression	
O=C(NCc1ccc(S(=O)(=O)c2ccccc2)cc1)c1cc2ncccc2o1 [N-{[4-(benzenesulfonyl)phenyl]methyl}furo[3,2-b]pyridine-2-carboxamide]	0.545				
COc1ccc(F)cc1S(=O)(=O)c1ccc(CNC(=O)c2cnc3[nH]ncc3c2)cc1		0.039			IC50 ([3]; SRB): 0.0151 µM
O=C(NCc1ccc(S(=O)(=O)c2ccc(Cl)cc2)cc1)c1cnc2[nH]ncc2c1 [N-({4-[(4-chlorobenzene)sulfonyl]phenyl}methyl)-1H-pyrazolo[3,4-b]pyridine-5-carboxamide]		0.0288			IC50 ([3]; SRB): 0.022 µM
COc1cc(S(=O)(=O)c2ccc(CNC(=O)c3ccc4nccn4c3)cc2)ccc1Cl		0.0135			IC50 ([3]; SRB): 0.006 µM
CN(C)C(=O)c1ccccc1S(=O)(=O)c1ccc(CNC(=O)c2cc3ccncc3o2)cc1					IC50 ([2]; NAMPT enzymatic assay): 0.1 to 1 µM; IC50 ([3]; SRB): 1 to 10 µM
O=C(NCc1ccc(S(=O)(=O)c2ccc(F)c(F)c2)cc1)c1cc2ccncc2o1		0.0168			IC50 ([3]; SRB): 0.013 µM
Cc1ccc(S(=O)(=O)c2ccc(CNC(=O)c3cc4ccncc4o3)cc2)c(C)c1		0.0218			IC50 ([3]; SRB): 0.024 µM
CCOc1ccc(S(=O)(=O)c2ccc(CNC(=O)c3cc4ccncc4s3)cc2)cc1		0.0021			IC50 ([3]; SRB): 0.004 µM
COc1cc(C)cc(S(=O)(=O)c2ccc(CNC(=O)c3cnc4nccn4c3)cc2)c1		0.0016			IC50 ([3]; SRB): 0.0013 µM
O=C(NCc1ccc(S(=O)(=O)c2ccccc2)cc1)c1ccc2nccn2c1 [N-{[4-(benzenesulfonyl)phenyl]methyl}imidazo[1,2-a]pyridine-6-carboxamide]		0.021	0.011	tumor regression	

— patent US12336981B2, “Compounds and compositions for the inhibition of NAMPT” (Valo Health, Inc., priority 2010, dated 2025)
